Converted amounts (≈) assume the structure as drawn.
Assays:
Type in all cases: cell-based
[1] = system: Staphylococcus aureus ATCC 6538; test: Broth microdilution MIC / MBC; settings: ATCC6538, S. aureus ATCC 6538
Protocol: (§1) The microdilution method was used to determine the MIC values of newly synthesized compounds. The antimicrobial activity of the thiosemicarbazides series was tested on ten reference bacterial strains purchased from the American Type Culture Collection (ATCC). Seven Gram-positive reference strains (S. aureus ATCC 29213, S. aureus ATCC 43300, S. aureus ATCC 6538, S. aureus ATCC 25923, S. epidermidis ATCC 12228, M. luteus ATCC 10240, and B. cereus ATCC 10876) and three Gram-negative reference bacteria (K. pneumoniae ATCC 13883, E. coli ATCC 25922, S. typhimurium ATCC 14028) were used. These bacterial strains are representatives of microorganisms that can cause the most common opportunistic infections among humans. The bacteria were grown on Mueller–Hinton agar (MHA) plates before examination. To perform the assay, all bacteria were placed in sterile saline (0.85% NaCl) to obtain a suspension of the optical density of the 0.5 McFarland standard (1.50 × 10^8 colony-forming units (CFUs)/mL). A solution of the tested compounds was prepared in dimethyl sulfoxide (DMSO) at a concentration of 50 mg/mL as a stock solution.
(§2) A 96-well microtiter plate and microbroth two-fold dilution method was used to determine the minimum inhibitory concentration (MIC) according to the EUCAST (European Committee on Antimicrobial Susceptibility Testing) reference recommendation. The solutions were then diluted with Mueller–Hinton broth (MHB, Biomaxima, Lublin, Poland) medium to obtain a solution with a basic concentration of 1000 µg/mL. Then, using the two-fold dilution method with MHB, the tested compounds were introduced into the wells of the microplate to provide a final concentration in the range of 0.49 to 1000 µg/mL. Then, 2 μL of bacterial inoculum with a density of 0.5 McFarland standard was added into each well. Each well was filled with a total volume of 100 μL. Then, microtiter plates were incubated for 18 ± 2 h at 35 °C. After incubation, the growth of bacteria was monitored by a Biotek ELx800 (Biokom, Janki, Poland) spectrophotometer at 600 nm (OD600). The MIC assays were performed in triplicate.
(§3) A negative control with MHB and without tested compounds was used. Clinically used anti-bacterial agents, cefuroxime and vancomycin, were included as positive controls for the purpose of comparison in a concentration range from 0.007 to 15.625 µg/mL.
(§4) The in vitro antimicrobial activity of the tested compounds was determined by the MIC, which was defined as the lowest concentration of the compound tested at which no visible growth of the test bacteria was observed. The MBC (the minimum bactericidal concentration) is defined as the lowest concentration of antimicrobial agent resulting in reduction in the viability of the initial bacterial inoculum by ≥99.9% on the plate. Generally, an MBC/MIC ratio less than 4 is considered bactericidal for an antimicrobial, and an MBC/MIC > 8 is indicative of bacteriostatic activity. For the MBC test, the Mueller–Hinton agar (MHA, Biomaxima, Poland) plate assay was used. MBC was determined after the broth dilution period of an MIC test has been completed. After the MIC detection, 5 µL aliquots from each well were plated on an MHA plate and grown at 35 °C overnight. The MBC values were determined by observing the first clear area on the agar plate that has no observable bacterial growth.

[2] = system: Micrococcus luteus ATCC 10240; test: Broth microdilution MIC / MBC; settings: ATCC10240, M. luteus ATCC 10240
Protocol: as §1, §2, §3, §4

[3] = system: Staphylococcus aureus ATCC 29213; test: Broth microdilution MIC / MBC; settings: ATCC29213, S. aureus ATCC 29213
Protocol: as §1, §2, §3, §4

[4] = system: Staphylococcus epidermidis ATCC 12228; test: Broth microdilution MIC / MBC; settings: ATCC12228, S. epidermidis ATCC 12228
Protocol: as §1, §2, §3, §4

[5] = system: Bacillus cereus ATCC 10876; test: Broth microdilution MIC / MBC; settings: ATCC10876, B. cereus ATCC 10876
Protocol: as §1, §2, §3, §4

[6] = system: Staphylococcus aureus ATCC 25923; test: Broth microdilution MIC / MBC; settings: for MBC: ATCC25923, S. aureus ATCC 25923, read-out: MBC; for MIC: ATCC25923, S. aureus ATCC 25923, read-out: MIC
Protocol: as §1, §2, §3, §4

[7] = system: Staphylococcus aureus ATCC 43300; test: Broth microdilution MIC / MBC; settings: S. aureus ATCC 43300 (MRSA); for MBC: read-out: MBC; for MIC: read-out: MIC
Protocol: as §1, §2, §3, §4

[8] = system: V79 Chinese hamster lung cells; test: MTT cytotoxicity assay; settings: Cricetulus griseus, V 79 normal cells, 72 h
Protocol: Both lines were obtained from American Type Culture Collection (ATCC, Rockville, MD, USA). The culture used to grow the SW 620 cells was prepared in MEM (ThermoSci, Waltham, MA, USA). The V79 cells were cultured in RPMI (Biowest SAS, Nuaillé, France) with the addition of 20 mM HEPES (Biowest, Nuaillé, France), 10% fetal bovine serum (FBS, Sigma-Aldrich, St. Louis, MO, USA), 100 µg/mL of streptomycin, and 100 U/mL of penicillin (Gibco, Grand Island, NY, USA). The eligible level of cells confluence was 80–90%, and both cell cultures were maintained in a humidified incubator set at 37 °C with 5% CO2 until they reached it.
The MTT assay was used to establish the cytotoxic activity of the studied compounds. The mechanism of this method relies on enzymatic conversion of 3-(4,5-dimethylthiazol-2-yl)-2,5-diphentyltetrazolium bromide salt (MTT) into insoluble formazan crystals by mitochondrial dehydrogenases within viable cells.
The process starts with the preparation of 96-well plates by placing cells at a density of 1 × 10^4 per well and incubating them for 24 h to adhere. Afterwards, the cells were treated with different concentrations of thiosemicarbazide derivatives, from 20 to 100 µM, except the control group which remained not exposed. Next, cells were incubated for 72 h at 37 °C with a 5% CO2. Then, a solution of MTT (0.5 mg/mL) was added to each well and plates were incubated for 4 h more in the same conditions.
To dissolve precipitated formazan crystals, a mixture of DMSO and isopropanol (in a 1:1 ratio, v/v) was used. For the spectrophotometric survey, we used MultiscanGo from Thermo Scientific with the wavelength value set at 570 nm to measure absorbance.
Cell viability was determined as the percentage of MTT reduction in the treated cells compared to the control group (unexposed cells). The relative MTT level, represented as a percentage, was calculated using the formula [A]/[B] × 100, where [A] stands for the absorbance of the treated cell sample and [B] for the absorbance of unexposed to studied compounds sample (control group). […] To calculate IC50 values (concentration at which 50% of cell viability is inhibited), we used GraphPad Prism 8.0.1 software.

Row | SMILES | MIC [1] [mg/L] | MIC [2] [mg/L] | MIC [3] [mg/L] | MIC [4] [mg/L] | MIC [5] [mg/L] | MIC [6] [mg/L] | MIC [7] [mg/L] | MBC [1] [mg/L] | MBC [2] [mg/L] | MBC [3] [mg/L] | MBC [4] [mg/L] | MBC [5] [mg/L] | MBC [6] [mg/L] | MBC [7] [mg/L] | IC50 [8] [µM]
1 | COc1cccc(NC(=S)NNC(=O)c2cccc(C(F)(F)F)c2)c1 [Compound 3b, 1-(3-Trifluoromethylbenzoyl)-4-(3-methoxyphenyl)thiosemicarbazide] | > 1000 | 500 (≈ 1350 µM) | > 1000 | > 1000 | > 1000 | 62.5 (≈ 169 µM) | > 1000 | – | – | – | – | – | – | – | > 100
2 | O=C(NNC(=S)Nc1cccc(F)c1)c1cccc(C(F)(F)F)c1 [Compound 3e, 1-(3-Trifluoromethylbenzoyl)-4-(3-fluorophenyl)thiosemicarbazide] | 15.6 (≈ 43.7 µM) | 15.6 (≈ 43.7 µM) | 15.6 (≈ 43.7 µM) | 31.2 (≈ 87.5 µM) | 7.81 (≈ 21.9 µM) | 31.2 (≈ 87.5 µM) | 31.2 (≈ 87.5 µM) | > 1000 | > 1000 | > 1000 | > 1000 | > 1000 | > 1000 | > 1000 | > 100
3 | O=C(NNC(=S)Nc1ccccc1)c1cccc(C(F)(F)F)c1 [Compound 3f, 1-(3-Trifluoromethylbenzoyl)-4-(phenyl)thiosemicarbazide] | > 1000 | 1000 (≈ 2950 µM) | > 1000 | 1000 (≈ 2950 µM) | > 1000 | 62.5 (≈ 184 µM) | > 1000 | – | – | – | – | – | – | – | > 100

Now from value to molecule, other results behind:

Row | MIC [1] [mg/L] | MIC [2] [mg/L] | MIC [3] [mg/L] | MIC [4] [mg/L] | MIC [5] [mg/L] | MIC [6] [mg/L] | MIC [7] [mg/L] | SMILES | MBC [1] [mg/L] | MBC [2] [mg/L] | MBC [3] [mg/L] | MBC [4] [mg/L] | MBC [5] [mg/L] | MBC [6] [mg/L] | MBC [7] [mg/L] | IC50 [8] [µM]
4 | 1.95 (≈ 5.22 µM) | 1.95 (≈ 5.22 µM) | 1.95 (≈ 5.22 µM) | 1.95 (≈ 5.22 µM) | 1.95 (≈ 5.22 µM) | 1.95 (≈ 5.22 µM) | 3.9 (≈ 10.4 µM) | O=C(NNC(=S)Nc1cccc(Cl)c1)c1cccc(C(F)(F)F)c1 [Compound 3a, 4-(3-Chlorophenyl)-1-(3-trifluoromethylbenzoyl)thiosemicarbazide] | 1000 (≈ 2680 µM) | 15.6 (≈ 41.8 µM) | 1000 (≈ 2680 µM) | 15.6 (≈ 41.8 µM) | 15.6 (≈ 41.8 µM) | 1000 (≈ 2680 µM) | 1000 (≈ 2680 µM) | 40.5 ± 3.83
5 | > 1000 | 1000 (≈ 3130 µM) | > 1000 | 1000 (≈ 3130 µM) | > 1000 | 250 (≈ 783 µM) | > 1000 | CCCCNC(=S)NNC(=O)c1cccc(C(F)(F)F)c1 [Compound 3c, 4-Butyl-1-(3-trifluoromethylbenzoyl)thiosemicarbazide] | – | – | – | – | – | – | – | > 100
6 | > 1000 | 1000 (≈ 2830 µM) | > 1000 | 1000 (≈ 2830 µM) | > 1000 | 1000 (≈ 2830 µM) | > 1000 | Cc1cccc(NC(=S)NNC(=O)c2cccc(C(F)(F)F)c2)c1 [Compound 3d, 1-(3-Trifluoromethylbenzoyl)-4-(3-methylphenyl)thiosemicarbazide] | – | – | – | – | – | – | – | 69.1 ± 5.45
7 | > 1000 | 1000 (≈ 2810 µM) | > 1000 | 500 (≈ 1410 µM) | > 1000 | 1000 (≈ 2810 µM) | > 1000 | FC(F)(F)c1cccc(-c2n[nH]c(=S)n2-c2cccc(Cl)c2)c1 [Compound 4, 4-(3-Chlorophenyl)-5-(3-trifluoromethylphenyl)-2,4-dihydro-3H-1,2,4-triazole-3-thione] | – | – | – | – | – | – | – | > 100
